The experiment concerns Escherichia coli. Nature of the experiment: Induction of pBR322 DNA cleavage after 2.5 hrs relative to (E)-1,2-bis(2-(4-(phenylsulfonyl)but-2-ynyloxy)phenyl)diazene.

As to `O=S(=O)(CC#CCOc1ccc2ccccc2c1)c1ccccc1`, the Activity was 15%.
